Results published in publication PMC10262914 (Bioorganic chemistry, 2022).
In brackets after ≈: the same amount, converted by molar mass. Several values for one entry are separate records, joined by “and”; a condition that tells them apart may be missing. Equal values may be shown once. Read-outs that look alike come from different tables or passages of the source.

Experiments:
[1] = test system: Mycobacterium tuberculosis H37Rv; test: Alamar blue metabolic readout assay; format: cell-based; conditions: for GAS MIC: M. tuberculosis H37Rv; for MIC: Mycobacterium tuberculosis, H37RV, read-out: GAS MIC
[2] = test system: VERO cells (kidney epithelial cells); test: Toxicity against VERO cells; format: cell-based
[3] = test system: Mycobacterium tuberculosis H37Rv; test: Alamar blue metabolic readout assay; format: cell-based; conditions: for MIC: Mycobacterium tuberculosis, H37RV, read-out: 7H12 MIC; for 7H12 MIC: M. tuberculosis H37Rv
[4] = test system: Mycobacterium tuberculosis H37Rv; test: Low oxygen recovery assay; format: cell-based; conditions: Mycobacterium tuberculosis, H37RV, read-out: LORA MIC
[5] = test system: Mycobacterium tuberculosis H37Rv; test: Alamar blue assay, MIC stated as range over GAS and 7H12 media; format: cell-based; conditions: for MIC (range over both media): H37Rv
in vitro [6] = conditions: monkey, microsomes, pH 7.4
[7] = mouse, microsomes
in vitro [8] = conditions: human, microsomes, pH 7.4
[9] = human, microsomes
[10] = microsomes
in vitro [11] = conditions: mouse, microsomes, pH 7.4
[12] = Chlorocebus sabaeus, Vero, read-out: Vero IC50, toxicity against Vero cells

SMILES: [2H]c1c(C([2H])([2H])[2H])c([2H])n2c(C(=O)NCc3ccc(F)cc3)c(C)nc2c1[2H] [Compound 29, N-(4-Fluorobenzyl)-2-methyl-6-(methyl-d3)imidazo[1,2-a]pyridine-5,7,8-d3–3-carboxamide]
- GAS MIC ([1]; GAS media): 0.0233 ± 0.0005 µM
- MIC [1]: 0.0233 µM (≈ 7.07 ng/mL)
- IC50 [2, 12]: > 10 µM
- MIC [3]: 0.11 ± 0.0118 µM (≈ 33.4 ng/mL)
- MIC [4]: > 10 µM

SMILES: [2H]c1c(C([2H])([2H])[2H])c([2H])n2c(C(=O)NCc3ccc4c(c3)CCCO4)c(C)nc2c1[2H] [Compound 39, N-(Chroman-6-ylmethyl)-2-methyl-6-(methyl-d3)imidazo[1,2-a] pyridine-5,7,8-d3-3-carboxamide]
- GAS MIC ([1]; GAS media): 0.0225 ± 0.0018 µM
- MIC [1]: 0.0225 µM (≈ 7.68 ng/mL)
- 7H12 MIC ([3]; 7H12 media): 0.0072 ± 0.0004 µM
- MIC [3]: 0.0072 µM (≈ 2.46 ng/mL)

SMILES: CCc1nc2ccc(Cl)cn2c1C(=O)NCc1ccc(N2CCC(c3ccc(OC(F)(F)F)cc3)CC2)cc1 [Compound Q203, Telacebec, reference compound]
- GAS MIC ([1]; GAS media): 0.0009 ± 0.0004 µM
- MIC [1]: 0.0009 µM (≈ 0.501 ng/mL)
- 7H12 MIC ([3]; 7H12 media): 0.0036 ± 0.0005 µM
- MIC [3]: 0.0036 µM (≈ 2.01 ng/mL)
- MIC [4]: > 5 µM

SMILES: [2H]c1c(C([2H])([2H])[2H])c([2H])n2c(C(=O)NCc3ccccc3Cl)c(C)nc2c1[2H] [Compound 42, N-(2-Chlorobenzyl)-2-methyl-6-(methyl-d3)imidazo[1,2-a] pyridine-5,7,8-d3-3-carboxamide]
- GAS MIC ([1]; GAS media): 0.0134 ± 0.0022 µM
- MIC [1]: 0.0134 µM (≈ 4.29 ng/mL)
- IC50 [2, 12]: > 10 µM
- 7H12 MIC ([3]; 7H12 media): 0.112 ± 0.0195 µM
- MIC [3]: 0.112 µM (≈ 35.8 ng/mL)
- MIC [4]: 8.49 µM (≈ 2720 ng/mL)

SMILES: [2H]c1c(C([2H])([2H])[2H])c([2H])n2c(C(=O)NCc3cccc(OC(F)(F)F)c3)c(C)nc2c1[2H] [Compound 43, 2-Methyl-6-(methyl-d3)-N-(3-(trifluoromethoxy)benzyl)imidazo [1,2-a]pyridine-5,7,8-d3-3-carboxamide]
- fold less active than 30 ([1]; GAS media, MIC ratio versus compound 30 (printed as 4-OCF3 para)): ~ 2.9 fold
- MIC [1]: 0.0263 ± 0.0036 µM (≈ 9.71 ng/mL)
- IC50 [2, 12]: > 10 µM
- fold less active than 30 ([3]; 7H12 media, MIC ratio versus compound 30 (printed as 4-OCF3 para)): > 28 fold
- MIC [3]: 0.108 ± 0.0074 µM (≈ 39.9 ng/mL)
- MIC [4]: 4.92 µM (≈ 1820 ng/mL)

SMILES: [2H]c1c(C([2H])([2H])[2H])c([2H])n2c(C(=O)NCc3ccc(Cl)cc3)c(C)nc2c1[2H] [Compound 31, N-(4-Chlorobenzyl)-2-methyl-6-(methyl-d3)imidazo[1,2-a]pyridine-5,7,8-d3-3-carboxamide]
- GAS MIC ([1]; GAS media): 0.012 ± 0.0015 µM
- MIC [1]: 0.012 µM (≈ 3.84 ng/mL)
- IC50 [2, 12]: > 10 µM
- 7H12 MIC ([3]; 7H12 media): 0.0231 ± 0.0071 µM
- MIC [3]: 0.0231 µM (≈ 7.39 ng/mL)
- MIC [4]: 7.09 µM (≈ 2270 ng/mL)

SMILES: [2H]c1c(C([2H])([2H])[2H])c([2H])n2c(C(=O)NCc3cc(Cl)cc(Cl)c3)c(C)nc2c1[2H] [Compound 47, N-(3,5-Dichlorobenzyl)-2-methyl-6-(methyl-d3)imidazo[1,2-a] pyridine-5,7,8-d3-3-carboxamide]
- GAS MIC ([1]; GAS media): 0.0188 ± 0.0028 µM
- MIC [1]: 0.0188 µM (≈ 6.66 ng/mL)
- IC50 [2, 12]: > 10 µM
- 7H12 MIC ([3]; 7H12 media): 0.04 ± 0.013 µM
- MIC [3]: 0.04 µM (≈ 14.2 ng/mL)
- MIC [4]: 8.87 µM (≈ 3140 ng/mL)
- fold less active than 46 ([5]; versus 46 (3,5-difluoro)): > 2 fold

SMILES: [2H]c1c(C([2H])([2H])[2H])cn2c(C(=O)NCc3ccc(C(F)(F)F)cc3)c(C([2H])([2H])[2H])nc2c1[2H] [Compound 55, 2,6-Bis(methyl-d3)-N-(4-(trifluoromethyl)benzyl)imidazo[1,2-a] pyridine-7,8-d2-3-carboxamide]
- half-life at 2 μM (in vitro [6]): 14 min
- CLint [7]: 42 ml/min/g protein
- MIC [1]: 0.0096 ± 0.0026 µM (≈ 3.41 ng/mL)
- half-life at 2 μM (in vitro [8]): 36 min
- CLint [9]: 38 ml/min/g protein
- IC50 [2, 12]: > 50 µM
- MIC [3]: 0.0049 ± 0.0013 µM (≈ 1.74 ng/mL)
- MIC [4]: > 10 µM
- CLint [10]: 98 ml/min/g protein
- half-life at 2 μM (in vitro [11]): 33 min

SMILES: [2H]c1c(C([2H])([2H])[2H])c([2H])n2c(C(=O)NCc3ccc(S(C)(=O)=O)cc3)c(C)nc2c1[2H] [Compound 33, 2-Methyl-6-(methyl-d3)-N-(4-(methylsulfonyl)benzyl)imidazo[1,2-a]pyridine-5,7,8-d3-3-carboxamide]
- MIC [1]: 0.174 ± 0.0269 µM (≈ 63.2 ng/mL)
- IC50 [2, 12]: > 10 µM
- MIC [3]: 0.212 ± 0.0282 µM (≈ 77.1 ng/mL)
- MIC [4]: > 10 µM
- MIC (range over both media) [5]: 0.174 to 0.212 µM

SMILES: [2H]c1c(C([2H])([2H])[2H])c([2H])n2c(C(=O)NCc3cc(F)cc(F)c3)c(C)nc2c1[2H] [Compound 46, N-(3,5-Difluorobenzyl)-2-methyl-6-(methyl-d3)imidazo[1,2-a] pyridine-5,7,8-d3-3-carboxamide]
- GAS MIC ([1]; GAS media): 0.0072 ± 0.0016 µM
- MIC [1]: 0.0072 µM (≈ 2.31 ng/mL)
- IC50 [2, 12]: > 10 µM
- 7H12 MIC ([3]; 7H12 media): 0.0124 ± 0.0045 µM
- MIC [3]: 0.0124 µM (≈ 3.98 ng/mL)
- MIC [4]: 6.91 µM (≈ 2220 ng/mL)
- MIC (range over both media) [5]: 0.007 to 0.012 µM

SMILES: [2H]c1c(C([2H])([2H])[2H])c([2H])n2c(C(=O)NCc3ccc(OCC)cc3)c(C)nc2c1[2H] [Compound 38, N-(4-Ethoxybenzyl)-2-methyl-6-(methyl-d3)imidazo[1,2-a] pyridine-5,7,8-d3-3-carboxamide]
- GAS MIC ([1]; GAS media): 0.0092 ± 0.0013 µM
- MIC [1]: 0.0092 µM (≈ 3.03 ng/mL)
- MIC [3]: 0.0236 ± 0.0104 µM (≈ 7.77 ng/mL)

SMILES: [2H]c1c(C([2H])([2H])[2H])c([2H])n2c(C(=O)NCc3ccc4c(c3)OCCO4)c(C)nc2c1[2H] [Compound 40, N-((2,3-Dihydrobenzo[b][1,4]dioxin-6-yl)methyl)-2-methyl-6-(methyl-d3)imidazo[1,2-a]pyridine-5,7,8-d3-3-carboxamide]
- GAS MIC ([1]; GAS media): 0.0101 ± 0.001 µM
- MIC [1]: 0.0101 µM (≈ 3.47 ng/mL)
- 7H12 MIC ([3]; 7H12 media): 0.0051 ± 0.0016 µM
- MIC [3]: 0.0051 µM (≈ 1.75 ng/mL)

SMILES: [2H]c1c(C([2H])([2H])[2H])c([2H])n2c(C(=O)NCc3ccc(OC)cc3)c(C)nc2c1[2H] [Compound 37, N-(4-Methoxybenzyl)-2-methyl-6-(methyl-d3)imidazo[1,2-a] pyridine-5,7,8-d3-3-carboxamide]
- GAS MIC ([1]; GAS media): 0.0245 ± 0.0005 µM
- MIC [1]: 0.0245 µM (≈ 7.73 ng/mL)
- IC50 [2, 12]: > 10 µM
- 7H12 MIC ([3]; 7H12 media): 0.0354 ± 0.01 µM
- MIC [3]: 0.0354 µM (≈ 11.2 ng/mL)
- MIC [4]: > 10 µM

SMILES: Cc1ccc2nc(C)c(C(=O)NCc3ccc(C(F)(F)F)cc3)n2c1 [Compound 57, 2,6-Bis(Methyl-d3)-N-((4-(trifluoromethyl)phenyl)methyl-d2) imidazo[1,2-a]pyridine-7,8-d2-3-carboxamide]
- IC50 ([2]; read-out: Vero IC50, toxicity against Vero cells): > 50 µM

SMILES: [2H]c1c(C([2H])([2H])[2H])c([2H])n2c(C(=O)NCc3cccc(OC)c3)c(C)nc2c1[2H] [Compound 45, N-(3-Methoxybenzyl)-2-methyl-6-(methyl-d3)imidazo[1,2-a] pyridine-5,7,8-d3-3-carboxamide]
- GAS MIC ([1]; GAS media): 0.0205 ± 0.0004 µM
- MIC [1]: 0.0205 µM (≈ 6.47 ng/mL)
- fold less active than 37 ([3]; 7H12 media, MIC ratio versus para isomer 37): 3 fold
- 7H12 MIC ([3]; 7H12 media): 0.105 ± 0.0191 µM
- MIC [3]: 0.105 µM (≈ 33.1 ng/mL)

SMILES: [2H]c1c(C([2H])([2H])[2H])c([2H])n2c(C(=O)NCc3ccc(OC(F)(F)F)cc3)c(C)nc2c1[2H] [Compound 34, 2-Methyl-6-(methyl-d3)-N-(4-(trifluoromethoxy)benzyl)imidazo [1,2-a]pyridine-5,7,8-d3-3-carboxamide]
- GAS MIC ([1]; GAS media): 0.0022 ± 0.0004 µM
- MIC [1]: 0.0022 µM (≈ 0.813 ng/mL)
- IC50 [2, 12]: > 50 µM
- 7H12 MIC ([3]; 7H12 media): 0.0055 ± 0.0018 µM
- MIC [3]: 0.0055 µM (≈ 2.03 ng/mL)
- MIC [4]: > 5 µM

SMILES: [2H]c1c(C([2H])([2H])[2H])c([2H])n2c(C(=O)NCc3ccc(S(F)(F)(F)(F)F)cc3)c(C)nc2c1[2H] [Compound 32, 2-Methyl-6-(methyl-d3)-N-(4-(pentafluoro-λ^6-sulfaneyl)benzyl) imidazo[1,2-a]pyridine-5,7,8-d3-3-carboxamide]
- GAS MIC ([1]; GAS media): 0.0029 µM and 0.0029 ± 0.0005 µM
- 7H12 MIC ([3]; 7H12 media): 0.0059 µM and 0.0059 ± 0.0003 µM
- MIC (range over both media) [5]: 0.003 to 0.006 µM

SMILES: [2H]c1c(C([2H])([2H])[2H])c([2H])n2c(C(=O)NCc3cccc(Cl)c3)c(C)nc2c1[2H] [Compound 41, N-(3-Chlorobenzyl)-2-methyl-6-(methyl-d3)imidazo[1,2-a] pyridine-5,7,8-d3-3-carboxamide]
- GAS MIC ([1]; GAS media): 0.0035 ± 0.0003 µM
- MIC [1]: 0.0035 µM (≈ 1.12 ng/mL)
- IC50 [2, 12]: > 10 µM
- 7H12 MIC ([3]; 7H12 media): 0.0222 ± 0.0057 µM
- MIC [3]: 0.0222 µM (≈ 7.1 ng/mL)
- MIC [4]: 4.52 µM (≈ 1450 ng/mL)
